{"source": "patent US20220249596A1", "about": "“PIC1 PEPTIDE COMPOSITIONS AND METHODS OF USE THEREOF FOR TREATMENT OF HYPOXIC ISCHEMIC ENCEPHALOPATHY” (REALTA HOLDINGS, LLC, priority 2019, published 2022)", "assay_type_in_all_cases": "in vivo, rat", "key": {"MPO (Myeloperoxidase)": {"system": "MPO (Myeloperoxidase)", "assay": "Myeloperoxidase expression in cortex (oxidant stress)", "details": "48 hours after injury, versus NT animals, P<0.01", "experimental": "(§1) After blocking for one hour at room temperature, tissues were incubated with 1:300 goat anti-Iba1 (Abcam), 1:250 goat anti-GFAP (Abcam), 1:500 chicken anti-NeuN (Millipore, Billerica, Mass.), or 1:100 mouse anti-NeuN (Millipore) in host appropriate blocking serum overnight at 4° C. Primary antibodies were probed with 1:500 donkey anti-goat (Abcam), goat anti-chicken (Abcam), or goat anti-mouse (Abcam) AF 488 or 568 in appropriate blocking serum for one hour at room temperature. Tissues were blocked a second time with NGS for one hour at room temperature. Samples were then probed with 1:300 mouse anti-C1q (Abcam), 1:300 rabbit anti-C9, 1:50 rabbit anti-MPO (Abcam), 1:200 rabbit anti-TMEM (Novus Bio, Centennial, Colo.), 1:100 rabbit anti-C3aR (Bioss), 1:100 Mouse anti-C5aR (Hycult), or 1:200 chicken anti-C3/C3a (Abcam) in NGS overnight at 4° C. and then with 1:500 goat anti-mouse, rabbit, or chicken (Abcam) AF 488 or 568 in NGS for one hour at room temperature.\nTo examine the effect of PIC1 treatment on oxidant stress, expression of the enzyme myeloperoxidase (MPO) was measured in the cortex of the brain. MPO is an enzyme from neutrophils that damages invading and host cells alike. MPO is one of the markers of oxidative stress after ischemic injury and is responsible for generating reactive oxygen species (hypochlorous acid and hydrogen peroxide). […]"}, "C5aR": {"system": "C5aR", "assay": "Whole brain C5aR expression, Western blotting and immunofluorescence", "details": "NT versus PIC1-treated groups", "experimental": "as §1\nWithout wishing to be bound by theory, C3a is generated at the convergence of all known complement activation pathways (i.e., the classical, alternate and lectin pathways). To investigate further, C3aR levels in the brain were measured by Western blotting and immunofluorescence (FIG. 5). Western blotting was performed as follows. […]"}, "[1]": {"system": "brain lesion after hypoxia/ischemia", "assay": "T2 MRI for brain tissue viability, lesion volume and edema", "experimental": "Neonatal hypoxia/ischemia was induced in Wistar rat pups (age of 10±1 days, P10) according to Rice et al. (1981) and with modifications. Rat pups were anesthetized with 5% isoflurane (in 70% N2O and 30% O2; flow 300 ml/min). During the operation the concentration of anesthetic was reduced to 1.0-1.5% to maintain adequate level of anesthesia. The rectal temperature was maintained at 37.0±1.5° C. with a homeothermic blanket system (Harvard Apparatus, UK). Just before first incision, pups received buprenorphine 0.03 mg/kg i.p. After midline skin incision, the right common carotid artery (CCA) was exposed and permanently ligated distal from the carotid bifurcation. Thereafter the wound was closed, disinfected, and the animals were allowed to recover from anesthesia for 1 hour before subjecting them to hypoxic conditions. Pups were carefully monitored for possible post-surgical complications. An additional dose of buprenorphine 0.03 mg/kg was administered s.c. twice a day during the first 48 hours post-surgery.\nTherma-treatment (6 hours) was started 1 hour post-hypoxia, to maintain normothermia (36+/−1° C. rat internal temperature) or hypothermia (31° C.+/−1 rat internal temperature), as follows. After CCA ligation, suturing and recovery for 1 h, pups were placed into chamber submerged to heated (+37° C.) water bath. Chamber was ventilated with heated (gas lines submerged to +37° C. water) mixture of 8% O2/92% N2 while pups were subjected to hypoxia. During the hypoxia period, chamber inner temperature was monitored. Pups were kept under hypoxic conditions for 60 minutes, except in group 5. In all pups the rectal temperature was monitored to ensure normothermic body temperature during hypoxia exposure. Rectal temperature after the H/I period was measured and recorded at the end of the exposure.\nNo other preparation was needed. The thawed tubes were kept on ice until dosing. […]\nBrain tissue viability was performed as follows. Lesion T2 and Control T2 values (in milliseconds) were measured at 24 hours and 21 days after H/I, and the data are shown as average. […]"}}, "note": "Entries after “also recorded” stand apart in the source; their conditions may differ. No end group written: not given here.", "data": [{"substance": "IALILEPICCQERAA-dPEG24 (cysteine pairing not given here) [PIC1]", "values": [{"measurement": "decrease of MPO expression in brain", "setting": "MPO (Myeloperoxidase)", "result": 83, "unit": "%"}, {"measurement": "expression of C5aR", "setting": "C5aR", "result": "no significant differences"}, {"measurement": "lesion volume in MRI", "setting": "[1]; 24 hours, pooled genders, H/I+PIC1+hypo versus H/I+hypo, p<0.05", "result": "reduction; also recorded: significant difference"}, {"measurement": "edema (%) in MRI", "setting": "[1]; 21 days, pooled genders, H/I+PIC1+normo versus H/I+hypo, p<0.01", "result": "reduction"}, {"measurement": "control T2 value", "setting": "[1]; contralateral cortex, between study groups, pooled or separated genders", "result": "no changes; also recorded: No statistical significances"}]}]}
